Reference: US10750743B2, “Pyridazinone herbicides” (E.I. DU PONT DE NEMOURS AND COMPANY, priority 2015, dated 2020)

How the values were obtained:
Format in all cases: in vivo
[1] = system: kochia (Kochia scoparia); assay: Test A postemergence application, visual injury rating; details: for Kochia plant response rating: 0 to 100 scale, 0 no effect, 100 complete control
Procedure, shortened: (§1)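 Compounds in a surfactant-containing solvent were applied as a directed soil spray preemergence, or postemergence to plants 2-10 cm tall at the one- to two-leaf stage, in loam-sand blend. After about 10 d in the greenhouse, injury was rated visually against untreated controls on a 0-100 scale (100 = complete control).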

[2] = system: ryegrass, It. (Italian ryegrass, Lolium multiflorum); assay: as above; details: for Ryegrass, It. plant response rating: 0 to 100 scale, 0 no effect, 100 complete control
Procedure, shortened: as §1

[3] = system: pigweed (Amaranthus retroflexus); assay: as above; details: for Pigweed plant response rating: 0 to 100 scale, 0 no effect, 100 complete control
Procedure, shortened: as §1

[4] = system: galium (catchweed bedstraw, Galium aparine); assay: as above; details: for Galium plant response rating: 0 to 100 scale, 0 no effect, 100 complete control
Procedure, shortened: as §1

[5] = system: wheat (Triticum aestivum); assay: as above; details: for Wheat plant response rating: 0 to 100 scale, 0 no effect, 100 complete control
Procedure, shortened: as §1

[6] = system: corn (Zea mays); assay: as above; details: for Corn plant response rating: 0 to 100 scale, 0 no effect, 100 complete control
Procedure, shortened: as §1

[7] = system: foxtail, giant (giant foxtail, Setaria faberii); assay: as above; details: for Foxtail, Giant plant response rating: 0 to 100 scale, 0 no effect, 100 complete control
Procedure, shortened: as §1

[8] = system: barnyardgrass (Echinochloa crus-galli); assay: as above; details: 0 to 100 scale, 0 no effect, 100 complete control
Procedure, shortened: as §1

[9] = system: blackgrass (Alopecurus myosuroides); assay: as above; details: 0 to 100 scale, 0 no effect, 100 complete control
Procedure, shortened: as §1

[10] = system: ragweed (common ragweed, Ambrosia elatior); assay: as above; details: for Ragweed plant response rating: 0 to 100 scale, 0 no effect, 100 complete control
Procedure, shortened: as §1

[11] = system: kochia (Kochia scoparia); assay: Test A preemergence, directed soil spray, visual injury rating; details: 0 is no effect, 100 is complete control
Procedure, shortened: as §1

[12] = system: ryegrass, It. (Italian ryegrass, Lolium multiflorum); assay: as above; details: 0 is no effect, 100 is complete control
Procedure, shortened: as §1

[13] = system: pigweed (Amaranthus retroflexus); assay: as above; details: 0 is no effect, 100 is complete control
Procedure, shortened: as §1

[14] = system: foxtail, giant (giant foxtail, Setaria faberii); assay: as above; details: 0 is no effect, 100 is complete control
Procedure, shortened: as §1

[15] = system: barnyardgrass (Echinochloa crus-galli); assay: as above; details: 0 is no effect, 100 is complete control
Procedure, shortened: as §1

[16] = system: ragweed (common ragweed, Ambrosia elatior); assay: as above; details: 0 is no effect, 100 is complete control
Procedure, shortened: as §1

[17] = system: sedge, umbrella (small-flower umbrella sedge, Cyperus difformis); assay: Test B flooded paddy test, visual rating; details: Flood, 250 g ai/ha, applied to paddy water, rated after 13 to 15 d
Procedure, shortened: (§2)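 Plants grown to the 2-leaf stage. At treatment, pots were flooded to 3 cm above the soil, compound was applied directly to the paddy water, and that depth was held throughout. After 13 to 15 d in the greenhouse, response was rated visually against controls on a 0 (no effect) to 100 (complete control) scale.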

[18] = system: rice (Oryza sativa); assay: Test B flooded paddy test, visual rating; details: Flood, 250 g ai/ha, applied to paddy water, rated after 13 to 15 d
Procedure, shortened: as §2

[19] = system: ducksalad (Heteranthera limosa); assay: Test B flooded paddy test, visual rating; details: Flood, 250 g ai/ha, applied to paddy water, rated after 13 to 15 d
Procedure, shortened: as §2

[20] = system: barnyardgrass (Echinochloa crus-galli); assay: Test B flooded paddy test, visual rating; details: Flood, 250 g ai/ha, applied to paddy water, rated after 13 to 15 d
Procedure, shortened: as §2

[21] = 31 g ai/ha, 0 is no effect, 100 is complete control

SMILES | Kochia plant response rating ([1]; 125 g ai/ha) | Ryegrass, It. plant response rating ([2]; 125 g ai/ha) | Pigweed plant response rating ([3]; 125 g ai/ha) | Galium plant response rating ([4]; 125 g ai/ha) | Wheat plant response rating ([5]; 125 g ai/ha) | Corn plant response rating ([6]; 125 g ai/ha) | Foxtail, Giant plant response rating ([7]; 125 g ai/ha) | Barnyardgrass plant response rating ([8]; 31 g ai/ha) | Barnyardgrass plant response rating ([8]; 125 g ai/ha) | Blackgrass plant response rating ([9]; 31 g ai/ha) | Blackgrass plant response rating ([9]; 125 g ai/ha) | Ragweed plant response rating ([10]; 125 g ai/ha) | Plant response rating (0 to 100 scale), Kochia ([11]; 31 g ai/ha) | Plant response rating (0 to 100 scale), Kochia ([11]; 125 g ai/ha) | Plant response rating (0 to 100 scale), Ryegrass, It. ([12]; 31 g ai/ha) | Plant response rating (0 to 100 scale), Ryegrass, It. ([12]; 125 g ai/ha) | Plant response rating (0 to 100 scale), Pigweed ([13]; 31 g ai/ha) | Plant response rating (0 to 100 scale), Pigweed ([13]; 125 g ai/ha) | Plant response rating (0 to 100 scale), Foxtail, Giant ([14]; 31 g ai/ha) | Plant response rating (0 to 100 scale), Foxtail, Giant ([14]; 125 g ai/ha) | further results
CC(=O)Oc1c(C)nn(C)c(=O)c1-c1ccc(Cl)c2oc(C)cc12 [Compound 54] | 10 | 60 | 40 | 70 | 0 | 0 | 0 | 0 | 0 | 0 | 0 | 0 | 0 | 0 | 30 | 50 | 0 | 20 | 0 | 0 | Kochia plant response rating ([1]; 31 g ai/ha): 0; Ryegrass, It. plant response rating ([2]; 31 g ai/ha): 20; Pigweed plant response rating ([3]; 31 g ai/ha): 30; Galium plant response rating ([4]; 31 g ai/ha): 50; Wheat plant response rating ([5]; 31 g ai/ha): 0; Corn plant response rating ([6]; 31 g ai/ha): 0; Foxtail, Giant plant response rating ([7]; 31 g ai/ha): 0; Ragweed plant response rating ([10]; 31 g ai/ha): 0; Plant response rating (0 to 100 scale), Barnyardgrass ([15]; 31 g ai/ha): 0; Plant response rating (0 to 100 scale), Barnyardgrass ([15]; 125 g ai/ha): 0; Plant response rating (0 to 100 scale), Ragweed ([16]; 31 g ai/ha): 0; Plant response rating (0 to 100 scale), Ragweed ([16]; 125 g ai/ha): 10; Sedge, Umbrella plant response rating (0 to 100 scale, 0 is no effect, 100 is complete control) [17]: 70; Rice plant response rating (0 to 100 scale, 0 is no effect, 100 is complete control) [18]: 0; Ducksalad plant response rating (0 to 100 scale, 0 is no effect, 100 is complete control) [19]: 0; Barnyardgrass plant response rating (0 to 100 scale, 0 is no effect, 100 is complete control) [20]: 0
COC(=O)Oc1c(C)nn(C)c(=O)c1-c1ccc(Cl)c2ccsc12 [Compound 50] | 90 | 90 | 70 | 100 | 0 | 0 | 0 | 0 | 10 | 0 | 10 | 70 | 0 | 20 | 60 | 80 | 0 | 100 | 0 | 10 | Kochia plant response rating ([1]; 31 g ai/ha): 40; Ryegrass, It. plant response rating ([2]; 31 g ai/ha): 60; Pigweed plant response rating ([3]; 31 g ai/ha): 60; Galium plant response rating ([4]; 31 g ai/ha): 100; Wheat plant response rating ([5]; 31 g ai/ha): 0; Corn plant response rating ([6]; 31 g ai/ha): 0; Foxtail, Giant plant response rating ([7]; 31 g ai/ha): 0; Ragweed plant response rating ([10]; 31 g ai/ha): 10; Plant response rating (0 to 100 scale), Barnyardgrass ([15]; 31 g ai/ha): 0; Plant response rating (0 to 100 scale), Barnyardgrass ([15]; 125 g ai/ha): 10; Plant response rating (0 to 100 scale), Ragweed ([16]; 31 g ai/ha): 0; Plant response rating (0 to 100 scale), Ragweed ([16]; 125 g ai/ha): 20; Sedge, Umbrella plant response rating (0 to 100 scale, 0 is no effect, 100 is complete control) [17]: 0; Rice plant response rating (0 to 100 scale, 0 is no effect, 100 is complete control) [18]: 0; Ducksalad plant response rating (0 to 100 scale, 0 is no effect, 100 is complete control) [19]: 0; Barnyardgrass plant response rating (0 to 100 scale, 0 is no effect, 100 is complete control) [20]: 0
COC(=O)Oc1c(C)nn(C)c(=O)c1-c1c(C)ccc2cc(C)oc12 [Compound 17] | 90 | 100 | 100 | 100 | 0 | 0 | 50 | 10 | 20 | 10 | 40 | 80 | 40 | 100 | 40 | 90 | 30 | 100 | 0 | 10 | Kochia plant response rating ([1]; 31 g ai/ha): 70; Ryegrass, It. plant response rating ([2]; 31 g ai/ha): 50; Pigweed plant response rating ([3]; 31 g ai/ha): 60; Galium plant response rating ([4]; 31 g ai/ha): 80; Wheat plant response rating ([5]; 31 g ai/ha): 0; Corn plant response rating ([6]; 31 g ai/ha): 0; Foxtail, Giant plant response rating ([7]; 31 g ai/ha): 20; Ragweed plant response rating ([10]; 31 g ai/ha): 70; Plant response rating (0 to 100 scale), Barnyardgrass ([15]; 31 g ai/ha): 0; Plant response rating (0 to 100 scale), Barnyardgrass ([15]; 125 g ai/ha): 0; Plant response rating (0 to 100 scale), Ragweed ([16]; 31 g ai/ha): 30; Plant response rating (0 to 100 scale), Ragweed ([16]; 125 g ai/ha): 90; Sedge, Umbrella plant response rating (0 to 100 scale, 0 is no effect, 100 is complete control) [17]: 0; Rice plant response rating (0 to 100 scale, 0 is no effect, 100 is complete control) [18]: 0; Ducksalad plant response rating (0 to 100 scale, 0 is no effect, 100 is complete control) [19]: 0; Barnyardgrass plant response rating (0 to 100 scale, 0 is no effect, 100 is complete control) [20]: 0
CC(=O)Oc1c(C)nn(C)c(=O)c1-c1ccc(Cl)c2sccc12 [Compound 60] | 70 | 10 | 30 | 100 | 0 | 0 | 0 | 0 | 0 | 0 | 0 | 0 | 0 | 0 | 0 | 10 | 0 | 100 | 0 | 0 | Plant response rating (0 to 100 scale), Kochia [1, 21]: 20; Plant response rating (0 to 100 scale), Ryegrass, It. [2, 21]: 0; Plant response rating (0 to 100 scale), Pigweed [3, 21]: 0; Plant response rating (0 to 100 scale), Galium [4, 21]: 20; Plant response rating (0 to 100 scale), Wheat [5, 21]: 0; Plant response rating (0 to 100 scale), Corn [6, 21]: 0; Plant response rating (0 to 100 scale), Foxtail, Giant [7, 21]: 0; Plant response rating (0 to 100 scale), Ragweed [10, 21]: 0; Plant response rating (0 to 100 scale), Barnyardgrass ([15]; 31 g ai/ha): 0; Plant response rating (0 to 100 scale), Barnyardgrass ([15]; 125 g ai/ha): 0; Plant response rating (0 to 100 scale), Ragweed ([16]; 31 g ai/ha): 0; Plant response rating (0 to 100 scale), Ragweed ([16]; 125 g ai/ha): 0; Sedge, Umbrella plant response rating (0 to 100 scale, 0 is no effect, 100 is complete control) [17]: 0; Rice plant response rating (0 to 100 scale, 0 is no effect, 100 is complete control) [18]: 0; Ducksalad plant response rating (0 to 100 scale, 0 is no effect, 100 is complete control) [19]: 0; Barnyardgrass plant response rating (0 to 100 scale, 0 is no effect, 100 is complete control) [20]: 0
CCC(=O)Oc1c(C)nn(C)c(=O)c1-c1c(C)ccc2cc(C)oc12 [Compound 22] | 90 | 80 | 90 | 90 | 0 | 0 | 70 | 10 | 10 | 30 | 80 | 90 | 30 | 90 | 30 | 80 | 100 | 100 | 0 | 50 | Kochia plant response rating ([1]; 31 g ai/ha): 70; Ryegrass, It. plant response rating ([2]; 31 g ai/ha): 70; Pigweed plant response rating ([3]; 31 g ai/ha): 60; Galium plant response rating ([4]; 31 g ai/ha): 70; Wheat plant response rating ([5]; 31 g ai/ha): 0; Corn plant response rating ([6]; 31 g ai/ha): 0; Foxtail, Giant plant response rating ([7]; 31 g ai/ha): 30; Ragweed plant response rating ([10]; 31 g ai/ha): 70; Plant response rating (0 to 100 scale), Barnyardgrass ([15]; 31 g ai/ha): 0; Plant response rating (0 to 100 scale), Barnyardgrass ([15]; 125 g ai/ha): 10; Plant response rating (0 to 100 scale), Ragweed ([16]; 31 g ai/ha): 20; Plant response rating (0 to 100 scale), Ragweed ([16]; 125 g ai/ha): 80; Sedge, Umbrella plant response rating (0 to 100 scale, 0 is no effect, 100 is complete control) [17]: 0; Rice plant response rating (0 to 100 scale, 0 is no effect, 100 is complete control) [18]: 0; Ducksalad plant response rating (0 to 100 scale, 0 is no effect, 100 is complete control) [19]: 0; Barnyardgrass plant response rating (0 to 100 scale, 0 is no effect, 100 is complete control) [20]: 0
